Compound | melting point [°C]
O=S(=O)(F)CCCCCCCc1ccc(OCc2ccccc2)cc1 [Compound 13.1, 7-(4-Benzyloxy-phenyl)-heptanesulfonyl fluoride] | 35 to 38
O=S(=O)(F)CCCCCc1ccc(OCc2ccccc2)cc1 [Compound 13.4, 5-(4-Benzyloxy-phenyl)-pentanesulfonyl fluoride] | 66 to 68
O=S(=O)(F)CCCCCCCc1ccc(O)cc1 [Compound 14.1, 7-(4-Hydroxy-phenyl)-heptanesulfonyl fluoride] | 47 to 51
O=S(=O)(F)CCCCOc1ccccc1 [Compound 17, 4-Phenoxybutylsulfonyl fluoride] | 74 to 76
COS(=O)(=O)CCCCCCCc1ccc(OCc2ccccc2)cc1 [Compound 18, 7-(4-Benzyloxy-phenyl)-heptane-1-sulfonic acid methyl ester] | 57 to 59
O=C(CCCOc1ccc(OCc2ccccc2)cc1)C(F)(F)F [Compound 23.1, 1,1,1-Trifluoro-5-[4-(benzyloxy)phenoxy]-2-pentanone] | 59 to 61
O=C(CCCCOc1ccc(OCc2ccccc2)cc1)C(F)(F)F [Compound 23.2, 1,1,1-Trifluoro-6-[4-(Benzyloxy)phenoxy]-2-hexanone] | 95.5 to 96
O=C(CCCCCOc1ccc(OCc2ccccc2)cc1)C(F)(F)F [Compound 23.3, 1,1,1-Trifluoro-7-[4-(Benzyloxy)phenoxy]-2-heptanone] | 59 to 60
O=C(CCCCCCOc1ccc(OCc2ccccc2)cc1)C(F)(F)F [Compound 23.4, 1,1,1-Trifluoro-8-[4-(Benzyloxy)phenoxy]-2-octanone] | 82 to 83
O=C(CCCOc1ccccc1OCc1ccccc1)C(F)(F)F [Compound 23.8, 1,1,1-Trifluoro-5-[2-(Benzyloxy)phenoxy]-2-pentanone] | 50 to 51
O=C(CCCCCOc1ccccc1OCc1ccccc1)C(F)(F)F [Compound 23.10, 1,1,1-Trifluoro-7-[2-(Benzyloxy)phenoxy]-2-heptanone] | 31 to 32
O=C(CCCCOc1ccccc1)C(F)(F)F [Compound 23.12, 1,1,1-Trifluoro-6-phenoxy-2-hexanone] | 50 to 51
Cc1nnc(C(=O)CCCCCCOc2ccc(O)cc2)o1 [Compound 66, 7-(4-Hydroxy-phenoxy)-1-(5-methyl-1,3,4-oxadiazol-2-yl)-heptan-1-one] | 134 to 135

Other lines, results leading:

melting point [°C] | Compound
76 to 77 | Oc1cccc(OCCCC(O)(O)C(F)(F)F)c1 (hydrate or solvate) [Compound 24.5, 1,1,1-Trifluoro-2,2-dihydroxy-5-[3-(hydroxy)phenoxy]pentane]
63 to 64 | O=C(CCCCOc1ccc(O)cc1)C(F)(F)F [Compound 24.2, 1,1,1-Trifluoro-6-[4-(hydroxy)phenoxy]-2-hexanone]
61 to 62 | O=C(CCCCCCOc1ccc(O)cc1)C(F)(F)F [Compound 24.4, 1,1,1-Trifluoro-8-[4-(hydroxy)phenoxy]-2-octanone]
51 to 52 | O=C(CCCCOc1ccccc1O)C(F)(F)F [Compound 24.9, 1,1,1-Trifluoro-6-[2-(hydroxy)phenoxy]-2-hexanone]
118 to 120 | Cc1nnc(C(=O)CCCCCCOc2ccc(OCc3ccccc3)cc2)o1 [Compound 65.2, 7-(4-Benzyloxy-phenoxy)-1-(5-methyl-1,3,4-oxadiazol-2-yl)-heptan-1-one]
